Several values for one entry are separate records, joined by “and”; a condition that tells them apart may be missing. Identical values can stand only once. Entries after “also recorded” stand apart in the source; their conditions may differ. Marks after values point to notes of the source that are not given here.
Columns and labels:
[1] = tested on: exon 51 of the human dystrophin gene; assay: Exon 51 skipping in patient muscle biopsy at week 180; type: in vivo; settings: 180 weeks
Experimental: (§1) Patients continued weekly dosing with 30 or 50 mg/kg eteplirsen under Study 202 (Study no. 4658-us-202; ClinicalTrials.gov Identifier: NCT01540409) a long-term, open-label extension study. All efficacy assessments continued to be performed during Study 202, including a third biopsy (in the left deltoid muscle) in all patients at week 48. A voluntary fourth biopsy ( 11/12 patients) was performed at week 180. Monitoring of adverse events continued throughout the study.

dystrophin = assay: Dystrophin positive fibers by immunohistochemistry (MANDYS106) in muscle biopsy; type: in vivo, human
Experimental: as §1
Dystrophin expression levels were determined in both the eteplirsen treated cohort and matched external control cohort, based on MANDYS106 [a gift from Glen Morris, MDA Monoclonal Antibody Library], a highly sensitive marker for dystrophin used in prior studies of eteplirsen and other exon skipping candidates. Three 10 μm frozen sections, separated by at least 200 μm, were stained with MANDYS106, followed by a secondary antibody (Alexa Fluor 594 goat antimouse antibody). Four pathologists reviewed the tissue blinded and reported percent dystrophin-positive fibers, which were calculated by dividing the number of positive fibers by the total fibers counted. As normal muscle samples have 100% dystrophin-positive fibers, percent dystrophin-positive fibers is expressed as a percentage of normal.

[2] = tested on: patients with Duchenne muscular dystrophy (DMD) amenable to exon 51 skipping; assay: Loss of ambulation / ambulatory status incl. Kaplan-Meier analysis, Study 201/202; type: in vivo, human
Experimental: (§2) Study 201 (Study no. 4658-us-201; ClinicalTrials.gov Identifier: NCT01396239) was a single-site, randomized, double-blind, placebo-controlled, multiple-dose efficacy, safety and tolerability trial of eteplirsen. Twelve patients with DMD were randomized to one of three groups: eteplirsen 30 mg/kg/week (Cohort 1); eteplirsen 50 mg/kg/week (Cohort 2); or placebo/delayed eteplirsen (Cohort 3). All patients received weekly intravenous eteplirsen or placebo/delayed eteplirsen dosing. Placebo-treated patients crossed over to weekly eteplirsen 30 (n=2) or 50 mg/kg (n=2) at week 25. Efficacy and safety were assessed at scheduled visits, and an independent Data Safety Monitoring Board ensured the welfare of all patients. All patients had bicep biopsies at baseline. Follow-up biopsies were performed in the opposite arm (biceps) at week 12 for the 50 mg/kg group and two placebo-treated patients and at week 24 for the 30 mg/kg group and two placebo-treated patients.
as §1
(§3) To compare the results of the eteplirsen cohort to a matched external control cohort, the Italian Telethon (n=97) and Leuven Neuromuscular Research Center (NMRC) (n=89) registries were used to compile control data. These registries were chosen because the following data was available: longitudinal 6MWT data in exon 51 amenable patients, longitudinal 6MWT data up to 36 months, and genetic mutation data. There was also an equivalent standard of care, including steroids, in these registries. Patient data was selected based on the following factors: baseline 6MTW and steroid treatment, age of 7 years or older, and amenable to exon 51 skipping (FIG. 2)
(§4) The 6MWT was administered using the protocol established for patients with DMD by McDonald, et al. (Muscle Nerve, 2010; 42:966-74; Muscle Nerve, 2010; 41:500-10 herein incorporated by reference), except there was no use of the StepWatch actimetry device. Exploratory functional outcomes included the North Star Ambulatory Assessment, quantitative muscle testing, the 9-Hole Peg Test, pulmonary function testing (PFT), timed function tests, and assessment of quality of life.

[3] = tested on: patients with Duchenne muscular dystrophy (DMD) amenable to exon 51 skipping; assay: 6 Minute Walk Test (6MWT), Study 201/202; type: in vivo, human; design: key to Year 4 6MWT: 6MWT distance walked, in meters; settings: for difference in mean change from baseline in 6MWT distance vs matched external control cohort: 12 treated vs 13 controls; for Year 4 6MWT/6MWD / Year 3 6MWT/6MWD: individual subjects; for Year 4 6MWT Difference in Mean Change: vs external matched control
Experimental: For the eteplirsen treated cohort, eligible patients were between 7 and 13 years of age (inclusive), with out-of-frame deletions of the DMD gene that could be corrected by skipping exon 51. Patients were confirmed to have stable cardiac and pulmonary function and a stable dose of glucocorticoids for at least 24 weeks prior to enrollment. Only patients who could walk between 200 and 400 meters […] on the 6-Minute Walk Test (6MWT) at baseline were enrolled.
This 4 year trial was conducted in two phases: (1) treatment was double-blind through week 24 and (2) open-label thereafter. The primary endpoint was change in ambulation as measured by the 6-Minute Walk Test (6MWT).
as §2, §1, §3, §4

For “RNA, [P-deoxy-P-(dimethylamino)](2′,3′-dideoxy-2′,3′-imino-2′,3′-seco)(2′a→5′)(C-m5U-C-C-A-A-C-A-m5U-C-A-A-G-G-A-A-G-A-m5U-G-G-C-A-m5U-m5U-m5U-C-m5U-A-G), 5′-[P-[4-[[2-[2-(2-hydroxyethoxy)ethoxy]ethoxy]carbonyl]-1-piperazinyl]-N,N-dimethylphosphonamidate] (antisense CTCCAACATCAAGGAAGATGGCATTTCTAG; all phosphorodiamidate morpholino (PMO); 5' piperazinyl triethylene glycol carbamate tail on phosphonamidate, further chemistry not fully specified) [eteplirsen]”, the “exon 51 skipping” value [1] was “all patients had measurable exon 51 skipping”, the “patients with dystrophin positive fibers as measured by immunohistochemistry” value (dystrophin; 180 weeks) was 10 of 11 and the “dystrophin positive fibers compared to matched external control patients” value (dystrophin; after 180 weeks, four blinded pathologists, p<0.001) was “significantly higher amount of dystrophin positive fibers”. For the same substance, the “Kaplan-Meier estimate for loss of ambulation rate” value ([2]; 4 years / 216 weeks of treatment, external control 89.7%, p=0.0038 log-rank) was 16.7%, the patients remaining ambulant ([2]; 216 weeks (over 4 years)) was 83.3% and the “number of patients remaining ambulant” value ([2]; 216 weeks of treatment) was 10 out of 12. The “age for loss of ambulation” value ([2]; Kaplan-Meier, external control median 12.8 years) was “could not be estimated”, the “number of patients who lost ambulation” value ([2]; over 36 months) was “two of the twelve” and the “cohort that lost ambulation (cumulative)” value ([2]; over 36 months, external control 46.2%) was 16.7%. The “number of patients who lost ambulation” value ([2]; over 216 weeks) was “two of the twelve”, the “DMD patients remaining ambulant” value ([2]; week 192, 30 mg/kg once per week) was 83% and the “number of patients ambulant” value ([2]; week 192 of treatment) was 10/12. The “ambulation in patients who lost the ability to rise from supine” value ([2]; year 4 of treatment) was “remained ambulant at year 4”, the “difference in mean change from baseline in 6MWT distance vs matched external control cohort” value ([3]; 4 years) was 162 m and the “difference in mean change from baseline in 6MWT distance vs matched external control cohort” value ([3]; 36 months / 3 years) was 151 m. For the same substance, the “6MWT distance percent change from baseline” value ([3]; 42 months, all 12 treated patients, external control −74% at month 36) was −42%, the “6MWT distance percent change from baseline” value ([3]; 48 months, placebo-delayed patients excluded (n=8)) was −43% and the “Year 4 6MWT/6MWD” value ([3]; 216 weeks, dose group 30 mg/kg) was 349 meters and 332 meters and 0 meters (2×). The “Year 4 6MWT/6MWD” value ([3]; 216 weeks, dose group 50 mg/kg) was 192 meters and 221 meters and 237 meters and 400 meters, the “Year 4 6MWT/6MWD” value ([3]; 216 weeks, dose group Placebo to 30 mg/kg) was 197 meters and 55 meters and the “Year 4 6MWT/6MWD” value ([3]; 216 weeks, dose group Placebo to 50 mg/kg) was 230 meters and 143 meters. The “Year 4 6MWT” value ([3]; Table 5, individual ambulatory subjects (n=10)) was 192 and 197 and 230 and 332 and 221 and 55† and 400 and 349 and 237 and 143, the “Year 4 6MWT Distance (m)” value ([3]; Table 6, individual ambulatory subjects (n=10)) was 55† m and 332 m and 230 m and 221 m and 400 m and 349 m and 192 m and 143 m and 237 m and 197 m and the “Year 3 6MWT/6MWD” value ([3]; dose group 30 mg/kg) was 378 meters and 359 meters and 0 meters (2×). The “Year 3 6MWT/6MWD” value ([3]; dose group 50 mg/kg) was 324 meters and 355 meters and 298 meters and 483 meters, the “Year 3 6MWT/6MWD” value ([3]; dose group Placebo to 30 mg/kg) was 312 meters and 100 meters and the “Year 3 6MWT/6MWD” value ([3]; dose group Placebo to 50 mg/kg) was 301 meters and 247 meters. The “walking distance over the study” value ([3]; over the duration of the study, FIG. 6) was “maintained a stable walking distance”, the “walking ability retained relative to baseline” value ([3]; several subjects including subject number 4, 216 weeks) was “greater than 50%” and the “change in 6MWT relative to baseline” value ([3]; subject number 15, 216 weeks) was “lost one meter”. The “6MWT distance at year 4 in patients below the NSAA threshold at year 3” value ([3]; subjects 003 and 005, respectively) was 143 meters and 192 meters, the “Year 4 6MWT Difference in Mean Change” value ([3]; ANCOVA, Covariate: Baseline 6MWT) was 150.3, p = 0.002 and the “Year 4 6MWT Difference in Mean Change” value ([3]; ANCOVA, Covariates: Baseline 6MWT, Age) was 156.1, p = 0.002. For the same substance, the “Year 4 6MWT Difference in Mean Change” value ([3]; ANCOVA, Rank transformed data) was 8.7, p = 0.001, the “Year 4 6MWT Difference in Mean Change” value ([3]; MMRM, Covariate: Baseline 6MWT) was 146.5, p = 0.003 and the “Year 4 6MWT Difference in Mean Change” value ([3]; MMRM, Covariates: Baseline 6MWT, Age) was 143.1, p = 0.004. The “Year 4 6MWT Difference in Mean Change” value ([3]; MMRM, Rank transformed data) was 8.4, p = 0.004 and the “patient ambulation between weeks 168 and 192” value ([3]; weeks 168 to 192 (42 to 48 months)) was “patient ambulation stabilized; also recorded: stabilized patient ambulation”.

Source: patent US20210008095A1, “METHODS FOR TREATING MUSCULAR DYSTROPHY” (Sarepta Therapeutics, Inc., priority 2015, published 2021)
